Test results from ChEMBL document CHEMBL5215001, “Diaporisoindole B Reduces Lipid Accumulation in THP-1 Macrophage Cells via MAPKs and PPARγ-LXRα Pathways and Promotes the Reverse Cholesterol Transport by Upregulating SR-B1 and LDLR in HepG2 Cells” (J Nat Prod, 2022).
Activity calls are given as the source filed them. No cut-off for these calls is given here.

How the values were obtained:
[1] = test system: THP-1; experiment: Cytotoxicity against human THP-1 cells assessed as inhibition of cell growth at 0 to 15 uM incubated for 24 hrs by CCK-8 assay; assay type: toxicity, cell-based; conditions: thp-1, 24 h, dose 0-15 µM
[2] = test system: HepG2; experiment: Cytotoxicity against human HepG2 cells assessed as inhibition of cell growth at 0 to 15 uM incubated for 24 hrs by CCK-8 assay; assay type: toxicity, cell-based; conditions: hepg2, 24 h, dose 0-15 µM
[3] = test system: THP-1; experiment: Inhibition of ox-LDL induced lipid accumulation in human THP-1 cells assessed as reduction in intracellular lipid droplets at 2.5 to 15 uM by oil red O staining based inverted microscopic analysis; assay type: functional, cell-based; conditions: dose 2.5-15 µM
[4] = test system: THP-1; experiment: Inhibition of ox-LDL induced lipid accumulation in human THP-1 cells assessed as reduction oxidized LDL uptake at 2.5 to 15 uM incubated for 4 hrs by Hoechst 33258 dye based confocal microscopic analysis; assay type: functional, cell-based; conditions: dose 2.5-15 µM
[5] = test system: THP-1; experiment: Inhibition of ox-LDL induced lipid accumulation in human THP-1 cells assessed as increase in cholesterol efflux rate incubated for 24 hrs by liquid scintillation counting analysis; assay type: functional, cell-based; conditions: dose 2.5-15 µM, DDE = dose-dependent effect
[6] = test system: THP-1; experiment: Inhibition of ox-LDL induced lipid accumulation in human THP-1 cells assessed as reduction in total triglyceride level at 2.5 to 15 uM; assay type: functional, cell-based; conditions: dose 2.5-15 µM
[7] = test system: THP-1; experiment: Inhibition of ox-LDL induced lipid accumulation in human THP-1 cells assessed as reduction in total cholesterol level at 2.5 to 15 uM; assay type: functional, cell-based; conditions: dose 2.5-15 µM
[8] = test system: HepG2; experiment: Inhibition of ox-LDL induced lipid accumulation in human HepG2 cells assessed as reduction in total triglyceride level at 2.5 to 15 uM; assay type: functional, cell-based; conditions: dose 2.5-15 µM
[9] = test system: HepG2; experiment: Inhibition of ox-LDL induced lipid accumulation in human HepG2 cells assessed as reduction in total cholesterol level at 2.5 to 15 uM; assay type: functional, cell-based; conditions: dose 2.5-15 µM
[10] = test system: THP-1; experiment: Inhibition of foam cells formation in human THP-1 cells assessed as reduction in CD36 mRNA expression at 2.5 to 15 uM by RT-PCR analysis; assay type: functional, cell-based; conditions: dose 2.5-15 µM
[11] = test system: THP-1; experiment: Inhibition of foam cells formation in human THP-1 cells assessed as reduction in CD36 protein expression at 2.5 to 15 uM by Western blot analysis; assay type: functional, cell-based; conditions: dose 2.5-15 µM
[12] = test system: THP-1; experiment: Inhibition of foam cells formation in human THP-1 cells assessed as upregulation of ABCA1 mRNA expression at 2.5 to 15 uM by RT-PCR analysis; assay type: functional, cell-based; conditions: dose 2.5-15 µM
[13] = test system: THP-1; experiment: Inhibition of foam cells formation in human THP-1 cells assessed as upregulation of ABCA1 protein expression at 2.5 to 15 uM by Western blot analysis; assay type: functional, cell-based; conditions: dose 2.5-15 µM
[14] = test system: THP-1; experiment: Inhibition of foam cells formation in human THP-1 cells assessed as upregulation of SR-B1 mRNA expression at 2.5 to 15 uM by RT-PCR analysis; assay type: functional, cell-based; conditions: dose 2.5-15 µM
[15] = test system: THP-1; experiment: Inhibition of foam cells formation in human THP-1 cells assessed as upregulation of SR-B1 protein expression at 2.5 to 15 uM by Western blot analysis; assay type: functional, cell-based; conditions: dose 2.5-15 µM
[16] = test system: THP-1; experiment: Inhibition of foam cells formation in human THP-1 cells assessed as upregulation of ABCG1 protein expression at 2.5 to 15 uM by Western blot analysis; assay type: functional, cell-based; conditions: dose 2.5-15 µM
[17] = test system: THP-1; experiment: Inhibition of ox-LDL uptake in human THP-1 foam cells assessed as downregulation of CD36 expression by measuring reduction in MAPK mRNA expression at 2.5 to 15 uM by qRT-PCR analysis; assay type: functional, cell-based; conditions: dose 2.5-15 µM
[18] = test system: THP-1; experiment: Inhibition of ox-LDL uptake in human THP-1 foam cells assessed as downregulation of CD36 expression by measuring reduction in total ERK protein expression at 2.5 to 15 uM by Western blot analysis; assay type: functional, cell-based; conditions: dose 2.5-15 µM
[19] = test system: THP-1; experiment: Inhibition of ox-LDL uptake in human THP-1 foam cells assessed as downregulation of CD36 expression by measuring reduction in total JNK protein expression at 2.5 to 15 uM by Western blot analysis; assay type: functional, cell-based; conditions: dose 2.5-15 µM
[20] = test system: THP-1; experiment: Inhibition of ox-LDL uptake in human THP-1 foam cells assessed as downregulation of CD36 expression by measuring reduction in total p38 protein expression at 2.5 to 15 uM by Western blot analysis; assay type: functional, cell-based; conditions: dose 2.5-15 µM
[21] = test system: THP-1; experiment: Inhibition of ox-LDL uptake in human THP-1 foam cells assessed as downregulation of CD36 expression by measuring reduction in pERK protein expression at 2.5 to 15 uM by Western blot analysis; assay type: functional, cell-based; conditions: dose 2.5-15 µM
[22] = test system: THP-1; experiment: Inhibition of ox-LDL uptake in human THP-1 foam cells assessed as downregulation of CD36 expression by measuring reduction in pJNK protein expression at 2.5 to 15 uM by Western blot analysis; assay type: functional, cell-based; conditions: dose 2.5-15 µM
[23] = test system: THP-1; experiment: Inhibition of ox-LDL uptake in human THP-1 foam cells assessed as downregulation of CD36 expression by measuring reduction in phosphorylated p38 protein expression at 2.5 to 15 uM by Western blot analysis; assay type: functional, cell-based; conditions: dose 2.5-15 µM
[24] = test system: THP-1; experiment: Induction of lipid efflux in human THP-1 cells assessed as upregulation of LXRalpha mRNA expression by qRT-PCR analysis; assay type: functional, cell-based; conditions: dose 2.5-15 µM, DDE = dose-dependent effect
[25] = test system: THP-1; experiment: Induction of lipid efflux in human THP-1 cells assessed as upregulation of PPARgamma mRNA expression by qRT-PCR analysis; assay type: functional, cell-based; conditions: dose 2.5-15 µM, DDE = dose-dependent effect
[26] = test system: THP-1; experiment: Induction of lipid efflux in human THP-1 cells assessed as upregulation of LXRalpha protein expression at higher concentrations by Western blot analysis; assay type: functional, cell-based
[27] = test system: THP-1; experiment: Induction of lipid efflux in human THP-1 cells assessed as upregulation of PPARgamma protein expression at higher concentrations by Western blot analysis; assay type: functional, cell-based
[28] = test system: HepG2; experiment: Reduction in triglyceride level in human HepG2 cells assessed as reduction in FAS mRNA expression by qRT-PCR analysis; assay type: functional, cell-based; conditions: dose 2.5-15 µM, DDE = dose-dependent effect
[29] = test system: HepG2; experiment: Reduction in triglyceride level in human HepG2 cells assessed as reduction in ACC mRNA expression by qRT-PCR analysis; assay type: functional, cell-based; conditions: dose 2.5-15 µM, DDE = dose-dependent effect
[30] = test system: HepG2; experiment: Reduction in triglyceride level in human HepG2 cells assessed as reduction in FAS protein expression by Western blot analysis; assay type: functional, cell-based; conditions: dose 2.5-15 µM, DDE = dose-dependent effect
[31] = test system: HepG2; experiment: Reduction in triglyceride level in human HepG2 cells assessed as reduction in ACC protein expression by Western blot analysis; assay type: functional, cell-based; conditions: dose 2.5-15 µM, DDE = dose-dependent effect
[32] = test system: HepG2; experiment: Reduction in cholesterol biosynthesis in human HepG2 cells assessed as reduction in HMGCR mRNA expression at 2.5 to 15 uM by qRT-PCR analysis; assay type: functional, cell-based; conditions: dose 2.5-15 µM
[33] = test system: HepG2; experiment: Downregulation of SREBP1c mRNA expression in human HepG2 cells at 2.5 to 15 uM by qRT-PCR analysis; assay type: functional, cell-based; conditions: dose 2.5-15 µM
[34] = test system: HepG2; experiment: Downregulation of SREBP2 mRNA expression in human HepG2 cells at 2.5 to 15 uM by qRT-PCR analysis; assay type: functional, cell-based; conditions: dose 2.5-15 µM
[35] = test system: HepG2; experiment: Downregulation of SREBP1c protein expression in human HepG2 cells at 2.5 to 15 uM by Western blot analysis; assay type: functional, cell-based; conditions: dose 2.5-15 µM
[36] = test system: HepG2; experiment: Downregulation of SREBP2 protein expression in human HepG2 cells at 2.5 to 15 uM by Western blot analysis; assay type: functional, cell-based; conditions: dose 2.5-15 µM
[37] = test system: HepG2; experiment: Induction of reverse cholesterol transport in human HepG2 cells assessed as reduction in PCSK9 mRNA expression at 2.5 to 15 uM by qRT-PCR analysis; assay type: functional, cell-based; conditions: dose 2.5-15 µM
[38] = test system: HepG2; experiment: Induction of reverse cholesterol transport in human HepG2 cells assessed as reduction in PCSK9 protein expression at 2.5 to 15 uM by Western blot analysis; assay type: functional, cell-based; conditions: dose 2.5-15 µM
[39] = test system: HepG2; experiment: Induction of reverse cholesterol transport in human HepG2 cells assessed as upregulation of LDLR protein expression by Western blot analysis; assay type: functional, cell-based; conditions: dose 2.5-15 µM, DDE = dose-dependent effect
[40] = test system: HepG2; experiment: Induction of reverse cholesterol transport in human HepG2 cells assessed as increase in SR-B1 mRNA expression by qRT-PCR analysis; assay type: functional, cell-based; conditions: dose 2.5-15 µM, DDE = dose-dependent effect
[41] = test system: HepG2; experiment: Induction of reverse cholesterol transport in human HepG2 cells assessed as increase in SR-B1 protein expression by Western blot analysis; assay type: functional, cell-based; conditions: dose 2.5-15 µM, DDE = dose-dependent effect

Which Activity [1] does the source give for `CC(C)=CCc1ccc(O)c2c1[C@H](c1cc(C)cc3c1O[C@H](C(C)(C)O)CO3)NC2=O` here?
The Activity was “Non-Toxic”.

What about the Activity [2] of the same compound?
Its Activity is “Non-Toxic”.

What about the inhibition [3] of the same compound?
The inhibition was “Active”.

What about the inhibition [4] of the same compound?
The inhibition was “Active”.

And the inhibition [5]?
The inhibition was “Dde”.

What about the inhibition [6] of the same compound?
Its inhibition is “Active”.

And the inhibition [7]?
Its inhibition is “Active”.

What about the inhibition [8] of the same compound?
Its inhibition is “Active”.

What about the inhibition [9] of the same compound?
The inhibition was “Active”.

What about the inhibition [10] of the same compound?
The inhibition was “Active”.

What about the inhibition [11] of the same compound?
The inhibition was “Active”.

What about the inhibition [12] of the same compound?
The inhibition was “Active”.

And the inhibition [13]?
The inhibition was “Active”.

And the inhibition [14]?
Its inhibition is “Active”.

And the inhibition [15]?
The inhibition was “Active”.

And the inhibition [16]?
The inhibition was “Active”.

And the inhibition [17]?
Its inhibition is “Active”.

What about the inhibition [18] of the same compound?
Its inhibition is “Active”.

And the inhibition [19]?
The inhibition was “Active”.

And the inhibition [20]?
Its inhibition is “Active”.

What about the inhibition [21] of the same compound?
Its inhibition is “Active”.

And the inhibition [22]?
The inhibition was “Active”.

What about the inhibition [23] of the same compound?
The inhibition was “Active”.

What about the Activity [24] of the same compound?
Its Activity is “Dde”.

And the Activity [25]?
The Activity was “Dde”.

And the Activity [26]?
The Activity was “Active”.

What about the Activity [27] of the same compound?
The Activity was “Active”.

What about the Activity [28] of the same compound?
Its Activity is “Dde”.

What about the Activity [29] of the same compound?
The Activity was “Dde”.

And the Activity [30]?
Its Activity is “Dde”.

And the Activity [31]?
The Activity was “Dde”.

And the Activity [32]?
The Activity was “Active”.

What about the Activity [33] of the same compound?
Its Activity is “Active”.

What about the Activity [34] of the same compound?
Its Activity is “Active”.

What about the Activity [35] of the same compound?
The Activity was “Active”.

And the Activity [36]?
The Activity was “Active”.

And the Activity [37]?
Its Activity is “Active”.

What about the Activity [38] of the same compound?
Its Activity is “Active”.

What about the Activity [39] of the same compound?
Its Activity is “Dde”.

And the Activity [40]?
Its Activity is “Dde”.

What about the Activity [41] of the same compound?
Its Activity is “Dde”.
